The source made the active and inactive calls. The calls are words filed in the database; no cut-off is given here.
How the values were obtained:
[1] = tested on: MC-38; assay: Synergistic antitumor activity against mouse MC38 cells implanted in C57BL/6J mouse assessed as reduction in tumor volume at 0.1 mg/kg, po bid administered for 3 to 4 weeks in presence of 5 mg/kg anti-PD1 and measured twice a week (reference value: 1549.22 +/- 217.92 mm3); type: functional; settings: time 3-4 weeks
[2] = tested on: Jurkat; assay: Induction of GLK degradation in human Jurkat cells at 1 to 1000 nM incubated for 24 hrs by Western blotting analysis; type: cell-based; settings: dose 1-1000 nM
[3] = molecular target: Protein cereblon/Mitogen-activated protein kinase kinase kinase kinase 1 (Homo sapiens, UniProt Q92918+Q96SW2); assay: PROTAC activity at CRBN/HPK1 in human Jurkat cells assessed as maximum degradation incubated for 24 hrs by Western blotting analysis; type: cell-based
[4] = Toxicity in Sprague-Dawley rat assessed as efficacy dose exposure measured after 14 days; settings: in vivo
[5] = Clearance in Sprague-Dawley rat at 2 mg/kg, iv measured upto 24 hrs by LC-MS analysis; settings: in vivo
[6] = tested on: MC-38; assay: Antitumor activity against mouse MC38 cells implanted in C57BL/6J mouse assessed as reduction in tumor weight at 100 mg/kg, po QD administered for 3 to 4 weeks (reference value: 1.79 +/- 0.24 g); type: functional; settings: time 3-4 weeks
[7] = tested on: MC-38; assay: Synergistic antitumor activity against mouse MC38 cells implanted in C57BL/6J mouse assessed as reduction in tumor volume at 100 mg/kg, po QD administered for 3 to 4 weeks in presence of 5 mg/kg anti-PD1 and measured twice a week (reference value: 1549.22 +/- 217.92 mm3); type: functional; settings: time 3-4 weeks
[8] = Metabolic stability in human liver microsomes assessed as intrinsic clearance at 1 uM incubated for 45 mins by LC-MS/MS method; type: ADME, Microsome; settings: read-out: CLH
[9] = AUCinfinity in Beagle dog at 1 mg/kg, iv measured upto 24 hrs by LC-MS analysis; type: ADME, organism-based, Canis lupus familiaris; settings: in vivo
[10] = Induction of INFgamma secretion in human T-cells incubated for 48 hrs by ELISA; type: functional, cell-based; settings: T-cell
[11] = tested on: MC-38; assay: Antitumor activity against mouse MC38 cells implanted in C57BL/6J mouse assessed as reduction in tumor weight at 1 mg/kg, po BID administered for 3 to 4 weeks (reference value: 1.79 +/- 0.24 g); type: functional; settings: time 3-4 weeks
[12] = tested on: Jurkat; assay: Induction of p-SLP76 at Ser376 protein degradation in human Jurkat cells incubated for 24 hrs by Western blotting analysis relative to control; type: cell-based
[13] = tested on: MC-38; assay: Antitumor activity against mouse MC38 cells implanted in C57BL/6J mouse assessed as tumor growth inhibition at 1 mg/kg, po BID measured after 4 weeks; type: functional; settings: MC-38, 672 h, read-out: TGI
[14] = in vitro; settings: dog, hepatocytes
[15] = molecular target: Cytochrome P450 2D6 (Homo sapiens, UniProt P10635); assay: Inhibition of CYP2D6 in human liver microsomes using dextromethorphan as substrate in presence of NADPH; type: ADME, Microsome
[16] = tested on: MC-38; assay: Synergistic antitumor activity against mouse MC38 cells implanted in C57BL/6J mouse assessed as tumor growth inhibition at 0.1 mg/kg, po bid measured after 4 weeks in presence of 5 mg/kg anti-PD1 and measured twice a week; type: functional; settings: MC-38, 672 h, read-out: TGI
[17] = Toxicity in C57BL/6J mouse assessed as change in body weight at 100 mg/kg, po qd measured after 28 days in presence of 5 mg/kg anti-PD1; type: organism-based; settings: in vivo, 672 h, time 28 day
[18] = Initial plasma concentration in Beagle dog at 1 mg/kg, iv measured upto 24 hrs by LC-MS analysis; type: ADME, organism-based, Canis lupus familiaris; settings: in vivo
[19] = AUC(0 to 24 hrs) in female Sprague-Dawley rat at 2 mg/kg/day, po measured at day 1; type: ADME, organism-based; settings: in vivo, time 1 day
[20] = tested on: MC-38; assay: Synergistic antitumor activity against mouse MC38 cells implanted in C57BL/6J mouse assessed as tumor weight inhibition rate at 0.5 mg/kg, po bid measured after 4 weeks in presence of 5 mg/kg anti-PD1 and measured twice a week; type: functional; design: scale not given: the % may be the effect or the level left
[21] = molecular target: T1, Cytochrome P450 2B6 (Homo sapiens, UniProt P20813); assay: Inhibition of CYP2B6 in human liver microsomes using bupropion as substrate in presence of NADPH; type: ADME, Microsome
T1 sequence (P20813 whole entry): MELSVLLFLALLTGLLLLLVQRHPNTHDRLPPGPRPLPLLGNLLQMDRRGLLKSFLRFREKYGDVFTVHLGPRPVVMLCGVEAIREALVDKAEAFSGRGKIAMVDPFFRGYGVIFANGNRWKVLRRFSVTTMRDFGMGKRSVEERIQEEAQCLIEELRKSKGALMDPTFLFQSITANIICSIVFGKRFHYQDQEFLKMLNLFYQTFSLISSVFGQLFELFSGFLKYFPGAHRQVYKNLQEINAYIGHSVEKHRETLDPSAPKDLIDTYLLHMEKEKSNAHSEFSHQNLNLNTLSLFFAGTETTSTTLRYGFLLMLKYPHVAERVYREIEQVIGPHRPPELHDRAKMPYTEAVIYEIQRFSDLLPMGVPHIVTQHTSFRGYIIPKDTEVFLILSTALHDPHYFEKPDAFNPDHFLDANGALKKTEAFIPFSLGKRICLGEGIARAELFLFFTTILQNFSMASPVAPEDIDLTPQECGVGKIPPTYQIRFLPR

[22] = in vivo; settings: female, Sprague-Dawley, rat, po, 30 mg/kg
[23] = Tmax in female Sprague-Dawley rat at 2 mg/kg/day, po measured at day 14; type: ADME, organism-based; settings: in vivo, time 14 day
[24] = in vivo; settings: female, Sprague-Dawley, rat, po, 2 mg/kg
[25] = in vitro; settings: rat, liver microsomes
[26] = AUC(0 to 24 hrs) in male Sprague-Dawley rat at 2 mg/kg/day, po measured at day 1; type: ADME, organism-based; settings: in vivo, time 1 day
[27] = tested on: MC-38; assay: Antitumor activity against mouse MC38 cells implanted in C57BL/6J mouse assessed as reduction in tumor volume at 100 mg/kg, po QD administered for 3 to 4 weeks (reference value: 1549.22 +/- 217.92 mm3); type: functional; settings: time 3-4 weeks
[28] = tested on: MC-38; assay: Antitumor activity against mouse MC38 cells implanted in C57BL/6J mouse assessed as tumor weight inhibition rate at 1 mg/kg, po BID measured after 4 weeks; type: functional; design: scale not given: the % may be the effect or the level left
[29] = Toxicity in Sprague-Dawley rat assessed as efficacy dose measured after 14 days; settings: in vivo, 336 h, time 14 day
[30] = in vivo; settings: male, Sprague-Dawley, rat, po, 2 mg/kg
[31] = Half-life in C57BL/6J mouse at 2 mg/kg, iv measured upto 24 hrs by LC-MS analysis; settings: in vivo
[32] = tested on: MC-38; assay: Antitumor activity against mouse MC38 cells implanted in C57BL/6J mouse assessed as tumor growth inhibition at 0.5 mg/kg, IG BID administered for 3 to 4 weeks; type: functional, organism-based; settings: time 3-4 weeks
[33] = tested on: MC-38; assay: Antitumor activity against mouse MC38 cells implanted in C57BL/6J mouse assessed as tumor growth inhibition at 0.1 mg/kg, po BID measured after 4 weeks; type: functional; settings: MC-38, 672 h, read-out: TGI

Sequence of Protein cereblon/Mitogen-activated protein kinase kinase kinase kinase 1 (Q92918 whole entry, looked up): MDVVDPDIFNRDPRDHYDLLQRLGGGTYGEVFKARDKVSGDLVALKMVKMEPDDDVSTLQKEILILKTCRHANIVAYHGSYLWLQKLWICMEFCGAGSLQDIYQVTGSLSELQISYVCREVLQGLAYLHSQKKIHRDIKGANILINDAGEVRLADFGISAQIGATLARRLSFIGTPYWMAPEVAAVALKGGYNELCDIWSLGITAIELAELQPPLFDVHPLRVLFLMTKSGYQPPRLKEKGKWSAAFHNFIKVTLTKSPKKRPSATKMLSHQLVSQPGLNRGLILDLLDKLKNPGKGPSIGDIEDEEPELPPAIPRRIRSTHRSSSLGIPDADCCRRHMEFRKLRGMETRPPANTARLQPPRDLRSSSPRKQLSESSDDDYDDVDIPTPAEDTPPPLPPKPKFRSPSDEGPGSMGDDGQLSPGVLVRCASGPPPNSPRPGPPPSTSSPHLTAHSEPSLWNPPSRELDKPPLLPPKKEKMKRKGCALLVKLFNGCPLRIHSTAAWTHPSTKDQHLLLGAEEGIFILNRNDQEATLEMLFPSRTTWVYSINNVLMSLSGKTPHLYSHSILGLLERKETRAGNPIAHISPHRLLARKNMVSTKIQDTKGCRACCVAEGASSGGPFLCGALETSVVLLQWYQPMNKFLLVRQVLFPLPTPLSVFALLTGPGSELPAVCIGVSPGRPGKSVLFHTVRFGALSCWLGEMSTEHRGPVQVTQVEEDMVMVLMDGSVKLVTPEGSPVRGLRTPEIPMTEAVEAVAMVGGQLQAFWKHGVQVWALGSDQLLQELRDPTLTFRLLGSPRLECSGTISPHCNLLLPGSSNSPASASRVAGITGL
Sequence of Protein cereblon/Mitogen-activated protein kinase kinase kinase kinase 1 (Q96SW2 whole entry, looked up): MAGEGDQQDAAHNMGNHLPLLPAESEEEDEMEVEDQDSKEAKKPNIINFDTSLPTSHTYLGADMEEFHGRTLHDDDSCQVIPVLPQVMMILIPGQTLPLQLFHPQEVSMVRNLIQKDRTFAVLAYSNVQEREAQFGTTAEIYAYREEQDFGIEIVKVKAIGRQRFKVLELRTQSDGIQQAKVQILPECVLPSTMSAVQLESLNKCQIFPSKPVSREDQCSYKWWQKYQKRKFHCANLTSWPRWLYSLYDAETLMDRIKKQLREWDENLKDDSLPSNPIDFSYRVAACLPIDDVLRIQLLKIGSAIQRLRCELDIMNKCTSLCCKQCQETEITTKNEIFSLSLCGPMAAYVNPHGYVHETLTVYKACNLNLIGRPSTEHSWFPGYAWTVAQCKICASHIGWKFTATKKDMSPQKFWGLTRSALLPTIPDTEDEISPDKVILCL
Sequence of Cytochrome P450 2D6 (P10635 whole entry): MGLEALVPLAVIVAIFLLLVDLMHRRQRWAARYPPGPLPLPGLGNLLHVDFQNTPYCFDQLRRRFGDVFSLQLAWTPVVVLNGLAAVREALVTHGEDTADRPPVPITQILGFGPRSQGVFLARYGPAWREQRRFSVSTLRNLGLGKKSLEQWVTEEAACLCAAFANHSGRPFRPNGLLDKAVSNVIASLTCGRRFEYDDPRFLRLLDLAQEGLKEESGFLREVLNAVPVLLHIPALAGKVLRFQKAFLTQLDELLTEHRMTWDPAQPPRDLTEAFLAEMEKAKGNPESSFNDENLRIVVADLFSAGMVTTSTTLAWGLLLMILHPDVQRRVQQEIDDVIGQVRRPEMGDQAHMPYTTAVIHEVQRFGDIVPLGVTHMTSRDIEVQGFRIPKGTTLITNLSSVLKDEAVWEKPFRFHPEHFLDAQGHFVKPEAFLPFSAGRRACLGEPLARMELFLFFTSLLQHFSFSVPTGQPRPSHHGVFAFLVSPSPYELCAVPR

With O=C1CCN(c2cc(C(=O)N3CCC(CC4CCN(c5ccc(-c6cnc7[nH]cc(-c8cnn(CC(F)(F)F)c8)c7n6)cn5)CC4)CC3)ccc2Cl)C(=O)N1 as the compound, how does the Activity [1] read?
Its Activity is 934.84 mm3.

And the Activity [2]?
Its Activity is “inactive”.

And the Emax [3]?
Its Emax is 94%.

And the AUC at 336 h [4]?
The AUC at 336 h was 291 ng·h/mL.

What about the clearance at 24 h [5] of the same compound?
Its clearance at 24 h is 4.17 mL/min/kg.

And the Activity [6]?
The Activity was 0.92 g.

What about the Activity [7] of the same compound?
Its Activity is 139.92 mm3.

What about the microsomal CLint at 1 µM [8] of the same compound?
The microsomal CLint at 1 µM was 3.48 µL/min/mg.

What about the AUC(0-inf) [9] of the same compound?
The AUC(0-inf) was 996 ng·h/mL.

What about the EC50 [10] of the same compound?
The EC50 was 0.0326 µM.

What about the Activity [11] of the same compound?
Its Activity is 1.56 g.

And the Emax [12]?
Its Emax is 82.1%.

What about the inhibition in vivo at 1 mg/kg [13] of the same compound?
The inhibition in vivo at 1 mg/kg was 17.5%.

What about the half-life at 1.5 h, 1 µM [14] of the same compound?
Its half-life at 1.5 h, 1 µM is 3.47 h.

And the IC50 [15]?
Its IC50 is greater than 10 µM.

And the inhibition in vivo at 0.1 mg/kg [16]?
The inhibition in vivo at 0.1 mg/kg was 39.7%.

And the Activity [17]?
The Activity was “Non-toxic”.

And the C0 [18]?
The C0 was 794 ng/mL.

And the AUC(0-t) at 24 h [19]?
The AUC(0-t) at 24 h was 539 ng·h/mL.

What about the Activity [20] of the same compound?
The Activity was 86.54%.

And the IC50 [21]?
Its IC50 is greater than 10 µM.

What about the Cmax at 24 h [22] of the same compound?
The Cmax at 24 h was 4900 ng/mL.

And the Tmax [23]?
Its Tmax is 6 h.

What about the Cmax at 336 h [24] of the same compound?
The Cmax at 336 h was 140 ng/mL.

What about the half-life at 0.75 h, 1 µM [25] of the same compound?
Its half-life at 0.75 h, 1 µM is 4.12 h.

What about the AUC(0-t) at 24 h [26] of the same compound?
The AUC(0-t) at 24 h was 1040 ng·h/mL.

What about the Activity [27] of the same compound?
The Activity was 667.6 mm3.

And the Activity [28]?
The Activity was 12.77%.

What about the Activity [29] of the same compound?
Its Activity is 0.8 mg/kg/day.

What about the AUC at 336 h [30] of the same compound?
The AUC at 336 h was 830 ng·h/mL.

And the half-life at 24 h [31]?
The half-life at 24 h was 1.17 h.

What about the Activity [32] of the same compound?
The Activity was “Active; Comparable To 100 Mg/Kg Dd203-1 Treatement Group”.

And the inhibition in vivo at 0.1 mg/kg [33]?
Its inhibition in vivo at 0.1 mg/kg is 28.5%.
